Reference: patent publication US20250304623A1, “PEPTIDES FOR INTRACELLULAR DELIVERY” (UNIVERSIDADE DE SANTIAGO DE COMPOSTELA, priority 2022, published 2025)
*: point of attachment. NHNH2 = NN*

What was measured:
Type in all cases: cell-based
HCT116 cells = experiment: RLuc pDNA delivery, robotic library screening, HCT116
HepG2 cells = experiment: RLuc pDNA delivery, robotic library screening, HepG2; settings: Oleyl
Protocol: (§1) Cells were seeded in a 96 well plate the day before the experiment at a concentration of 60,000 cell/mL (100 μL/w) in DMEM+10% FBS+1% Gln-Abt. For robotic library screening, the delivery of pDNA encoding for the expression of Renilla luciferase gene (RLuc, pRL-CMV (Promega, #E2261)) in six different cell lines was performed. Amphihilic molecule stock solutions in DMSO were diluted with DMEM and freshly mixed with pDNA stock solutions in DMEM prior to transfection experiments, to afford several complexes at different amphiphile concentration (2-10 μM) while maintaining a constant final pDNA concentration of 2 ng/μL. The mixture was shaken for 30 min at room temperature before the addition to the cells. The cell medium was aspirated, and cells were washed twice with PBS. Finally, 50 μL of the complex's solution were added to the cells and incubated for 4 h. After the incubation, the medium was replaced by 100 μL of fresh DMEM supplemented with 10% FBS. 72 hours after transfection the DMEM was removed, cells were washed once with HBSS and 90 μL of HBSS were added to each well. Cells were incubated at 37° C. for 30 minutes. Then basal luminescence levels were read in a plate reader. Immediately, 10 μL of coelenterazine h in HBSS were added to each well (5 μM final concentration) and cells were incubated at 37° C. for 10 minutes. Finally, the total luminescence measurement of the plates was performed. Amphiphile transfection efficiency was compared and normalized to Lipofectamine® 2000 efficiency (value of 1 in Tables 1-5 and 7; bold numbers). All experiments were done in triplicate.
(§2) Tables 1-7: RLuc (pDNA) or EGFP (mRNA) expression levels were normalized to Lipofectamine reagents (value=1) and expressed as fold-times signal increase. In the case of siRNA, the siRNA treated cells fluorescence was compared with siMOCK control fluorescence, while Cas9-RNP mediated knockout was measured against the fluorescence of untreated cells. In both siRNA and Cas9-RNP, values are expressed as % fluorescence reduction. Amphiphile concentration was 5 μM in all cases. All experiments were performed in triplicate.
(§3) Tables 8-13 show the mean (triplicates) luminescent intensity (RLU) measured after the transfection of RLuc pDNA by different amphiphiles at different concentrations in a variety of cell lines. Background luminescence values, accounted by untransfected control cells, were subtracted for processing.

Hela cells = experiment: RLuc pDNA delivery, robotic library screening, HeLa; settings: Hela
Protocol: as §1, with “Amphihilic molecule stock solutions in DMSO were diluted with DMEM and freshly mixed with pDNA stock solutions in DMEM prior to transfection experiments, to afford several complexes at different amphiphile concentration (2-10 μM) while maintaining a constant final pDNA concentration of 2 ng/μL.” left out
as §2, §3

Hek293 cells = experiment: RLuc pDNA delivery, robotic library screening, Hek293
A549 cells = experiment: RLuc pDNA delivery, robotic library screening, A549
Protocol: as §1, §2, §3

ARPE19 cells = experiment: RLuc pDNA delivery, robotic library screening, ARPE19

Substance: Ac-RK*RRK*K*R-NH2 (Ac-RK(NHNH2)RRK(NHNH2)K(NHNH2)R-NH2; not fully specified; printed as Ac-RK*RRK*K*R-NH2; also: K*2,K*5,K*6: native or modified lysine (ε-amide to a linker)) [7.3(L-R)]
- mean luminescent intensity (RLuc pDNA) (HCT116 cells; Myristoleyl, 5 μM): 7939 RLU
- mean luminescent intensity (RLuc pDNA) (HCT116 cells; Myristoleyl, 10 μM): −83 RLU
- mean luminescent intensity (RLuc pDNA) (HCT116 cells; Myristoleyl, 15 μM): −41 RLU
- mean luminescent intensity (RLuc pDNA) (HCT116 cells; Palmitoleyl, 5 μM): 22225 RLU
- mean luminescent intensity (RLuc pDNA) (HCT116 cells; Palmitoleyl, 10 μM): 41280 RLU
- mean luminescent intensity (RLuc pDNA) (HCT116 cells; Petroselinyl, 5 μM): 2832 RLU
- mean luminescent intensity (RLuc pDNA) (HCT116 cells; Petroselinyl, 10 μM): 9686 RLU
- mean luminescent intensity (RLuc pDNA) (HepG2 cells; 5 μM): 1696 RLU
- mean luminescent intensity (RLuc pDNA) (HepG2 cells; 10 μM): 22303 RLU
- mean luminescent intensity (RLuc pDNA) (HepG2 cells; 15 μM): 6498 RLU
- mean luminescent intensity (RLuc pDNA) (Hela cells; Myristoleyl, 5 μM): 3647 RLU
- mean luminescent intensity (RLuc pDNA) (Hela cells; Myristoleyl, 10 μM): 2076 RLU
- mean luminescent intensity (RLuc pDNA) (Hela cells; Myristoleyl, 15 μM): 22 RLU
- mean luminescent intensity (RLuc pDNA) (Hela cells; Palmitoleyl, 5 μM): 62538 RLU
- mean luminescent intensity (RLuc pDNA) (Hela cells; Palmitoleyl, 10 μM): 25113 RLU
- mean luminescent intensity (RLuc pDNA) (Hela cells; Palmitoleyl, 15 μM): 3405 RLU
- mean luminescent intensity (RLuc pDNA) (Hela cells; Petroselinyl, 5 μM): 4972 RLU
- mean luminescent intensity (RLuc pDNA) (Hek293 cells; Myristoleyl, 5 μM): 46216 RLU
- mean luminescent intensity (RLuc pDNA) (Hek293 cells; Myristoleyl, 10 μM): 51837 RLU
- mean luminescent intensity (RLuc pDNA) (Hek293 cells; Myristoleyl, 15 μM): 10351 RLU
- mean luminescent intensity (RLuc pDNA) (Hek293 cells; Palmitoleyl, 5 μM): 73751 RLU
- mean luminescent intensity (RLuc pDNA) (Hek293 cells; Palmitoleyl, 10 μM): 115755 RLU
- mean luminescent intensity (RLuc pDNA) (Hek293 cells; Palmitoleyl, 15 μM): 29282 RLU
- mean luminescent intensity (RLuc pDNA) (Hek293 cells; Petroselinyl, 5 μM): 9983 RLU
- mean luminescent intensity (RLuc pDNA) (Hek293 cells; Petroselinyl, 10 μM): 59396 RLU
- mean luminescent intensity (RLuc pDNA) (Hek293 cells; Petroselinyl, 15 μM): 8037 RLU
- mean luminescent intensity (RLuc pDNA) (A549 cells; Oleyl, 5 μM): 13651 RLU
- mean luminescent intensity (RLuc pDNA) (A549 cells; Palmitoleyl, 5 μM): 5366 RLU
- mean luminescent intensity (RLuc pDNA) (A549 cells; Palmitoleyl, 15 μM): 12440 RLU
- mean luminescent intensity (RLuc pDNA) (A549 cells; Petroselinyl, 15 μM): 7194 RLU
- mean luminescent intensity (RLuc pDNA) (ARPE19 cells; Myristoleyl, 5 μM): 522 RLU
- mean luminescent intensity (RLuc pDNA) (ARPE19 cells; Myristoleyl, 10 μM): 20 RLU
- mean luminescent intensity (RLuc pDNA) (ARPE19 cells; Myristoleyl, 15 μM): 56 RLU
- mean luminescent intensity (RLuc pDNA) (ARPE19 cells; Palmitoleyl, 5 μM): 2987 RLU
- mean luminescent intensity (RLuc pDNA) (ARPE19 cells; Petroselinyl, 5 μM): 2177 RLU
